Assay results from EP4177246A1, “FUSED OXAZEPINES AS INHIBITORS OF PEROXIREDOXINS” (Centro Atlántico del Medicamento, SA, priority 2021, dated 2023).

Assays:
HEL 92.1.7 = test: MTT cell viability assay, HEL cells; assay type: cell-based; details: Homo sapiens, 48 h drug exposure
Description: HEL 92.1.7 [American Type Culture Collection (ATCC) reference number TIB-180]. This a human cancer cell line derived from the bone marrow of a person with erythroleukemia, which is a form of AML.
(§1) Cell viability was assayed by measuring the mitochondrial reduction of the tetrazolium salt 3-(4,5-methyltiazol-2yl)-2,5diphenyl-tetrazolium bromide] (MTT) (Applichen; A2231,0010) [Mosmann T. J Immunol Methods. 1983 16;65(1-2):55-63 (ref. 36); Chuan Y-C et al 2010. Oncogene. 29 (10), 1531-1542 (ref. 37)]. Cells were seeded in 96-well plates in medium (either RPMI, DMEM or McCoys depending on the recommendations from the ATCC) supplemented with 10% FBS (Lonza Cat. N°: 14-502F), 2mM L-Glut (Lonza Cat. N°: BE17-605E) and 100U/ml PEST (Lonza Cat. N°: DE17-605E) at a cell density of 1000-5000 cells/well (96 well plate). Cells were seeded at a density according to their exponential growth phase (normally 1000 to 5000/well). The cells were cultured at 37 °C in the dark in air containing 5% CO2. After 24h either vehicle (0.05% DMSO) or drug were added to culture medium at the indicated concentrations (10 to 0,01microM). After another 48 h, MTT (0.3 mg/ml) was added to cells, followed by incubation for 2-4h at 37 °C in the dark. The medium was then removed and the precipitated formazan was solubilized by the addition of DMSO (200 µL).
(§2) The optical density was measured at 595 nm with the iMark Microplate Reader (BioRad, USA). Data was expressed as percent growth above the level in controls and the results in figures were plotted as means ± SEM of each test point from 3 replicates.
(§3) Statistical analysis. The concentration of drug that provokes 50% reduction of cell viability (IC50) was determined by using non-linear regression analysis and data were fitted to a log concentration vs normalized response curve in GraphPad software v5 (San Diego, CA).

K562 = test: MTT cell viability assay, K562 cells; assay type: cell-based; details: Homo sapiens, 48 h drug exposure
Description: K562 [American Type Culture Collection (ATCC) reference number CCL-243]. This a human cancer cell line derived from the bone marrow of a person with CML.
as §1, §2, §3

MDA-MB-231 = test: MTT cell viability assay, MDA-MB-231 cells; assay type: cell-based, human; details: Homo sapiens, 48 h drug exposure
Description: MDA-MB-231 [American Type Culture Collection (ATCC) reference number HTB-26]. This a human breast cancer cell line derived from a metastatic site from a person.
as §1, §2, §3

PANC-1 = test: MTT cell viability assay, PANC-1 cells; assay type: cell-based; details: Homo sapiens, 48 h drug exposure
Description: PANC-1 [American Type Culture Collection (ATCC) reference number CRL-1469]. This a human cancer cell line derived from the pancreas of a person.
as §1, §2, §3

MCF-7 = test: MTT cell viability assay, MCF-7 cells; assay type: cell-based; details: Homo sapiens, MCF7, 48 h drug exposure
Description: as §1, §2, §3

DU-145 = test: MTT cell viability assay, DU-145 cells; assay type: cell-based; details: Homo sapiens, 48 h drug exposure
Description: DU-145 [American Type Culture Collection (ATCC) reference number HTB-81]. This a human prostate cancer cell line derived from a metastatic site (brain) of a person.
as §1, §2, §3

| Compound | IC50 (K562) [µM] | IC50 (MDA-MB-231) [µM] | IC50 (PANC-1) [µM] | IC50 (MCF-7) [µM] | IC50 (DU-145) [µM] | IC50 (HEL 92.1.7) [µM] |
| --- | --- | --- | --- | --- | --- | --- |
| O=C1C2=C(C(=O)c3ccccc31)N(c1ccccc1)Cc1ccccc1O2 [Compound 1, 12-phenyl-12,13-dihydrobenzo[f]naphtho[2,3-b][1,4]oxazepine-6,11-dione] | 0.98 | 1.59 | – | – | – | 0.45 |
| O=C1C2=C(C(=O)c3ccccc31)N(c1cccnc1)Cc1ccccc1O2 [Compound 4, 12-(pyridin-3-yl)-12,13-dihydrobenzo[f]naphtho[2,3-b][1,4]oxazepine-6,11-dione] | 0.98 | 1.52 | 4.36 | 5.12 | 8.9 | – |
| N#Cc1cccc(N2Cc3ccccc3OC3=C2C(=O)c2c(O)ccc(O)c2C3=O)c1 [Compound 9, 3-(7,10-dihydroxy-6,11-dioxo-6,11-dihydrobenzo[f]naphtho[2,3-b][1,4]oxazepin-12(13H)-yl)benzonitrile] | 0.08 | 0.38 | 0.46 | 1.15 | 2.53 | – |
| NC(=O)c1ccc(N2Cc3ccccc3OC3=C2C(=O)c2c(O)ccc(O)c2C3=O)cc1 [Compound 10, 4-(7,10-dihydroxy-6,11-dioxo-6,11-dihydrobenzo[f]naphtho[2,3-b][1,4]oxazepin-12(13H)-yl)benzamide] | 0.09 | 0.63 | 0.36 | 1.85 | 6.18 | – |
| COc1ccc2c(c1)OC1=C(C(=O)c3c(O)ccc(O)c3C1=O)N(C(=O)c1ccc(C#N)cc1)C2 [Compound 13] | 0.32 | 0.78 | 0.46 | 2.75 | 3.72 | – |
| NC(=O)c1ccc(N2Cc3ccccc3OC3=C2C(=O)c2ccccc2C3=O)cc1 [Compound 17, 4-(6,11-dioxo-6,11-dihydrobenzo[f]naphtho[2,3-b][1,4]oxazepin-12(13H)-yl)benzamide] | 0.65 | – | – | 5.91 | 5.77 | – |
| NS(=O)(=O)c1ccc(N2Cc3ccccc3OC3=C2C(=O)c2ccccc2C3=O)cc1 [Compound 19] | 1.39 | – | – | 7.9 | 8.36 | 1 |
| NS(=O)(=O)c1ccc(N2Cc3cc(F)ccc3OC3=C2C(=O)c2c(O)ccc(O)c2C3=O)cc1 [Compound 23] | 0.54 | 2.54 | 0.57 | 3.23 | 8.16 | – |
| COc1cccc2c1OC1=C(C(=O)c3c(O)ccc(O)c3C1=O)N(c1ccc(C#N)cc1)C2 [Compound 26] | 0.13 | 0.39 | 0.47 | 3.17 | 7.35 | – |
| NC(=O)c1ccc(N2Cc3cc(Cl)ccc3OC3=C2C(=O)c2c(O)ccc(O)c2C3=O)cc1 [Compound 41] | 0.22 | 0.98 | 0.39 | 1.53 | 3.74 | – |
| N#Cc1cccc(N2Cc3cc(Cl)ccc3OC3=C2C(=O)c2c(O)ccc(O)c2C3=O)c1 [Compound 43] | 0.76 | 0.81 | 0.74 | 1.3 | – | – |
| NC(=O)c1cccc(N2Cc3cc(Cl)ccc3OC3=C2C(=O)c2c(O)ccc(O)c2C3=O)c1 [Compound 44] | 0.06 | 0.73 | 0.32 | 0.97 | – | – |
| O=C1C2=C(C(=O)c3c(O)ccc(O)c31)N(c1ccccc1)Cc1ccccc1O2 [Compound 45, 7,10-dihydroxy-12-phenyl-12,13-dihydrobenzo[f]naphtho[2,3-b][1,4]oxazepine-6,11-dione] | 0.09 | 0.13 | – | – | 0.57 | 0.09 |
| CN(CCO)c1ccc(N2Cc3ccccc3OC3=C2C(=O)c2ccccc2C3=O)cn1 [Compound 49] | – | 2.63 | 3.43 | – | – | 1.22 |
| NC(=O)c1ccc(N2Cc3cc(F)ccc3OC3=C2C(=O)c2c(O)ccc(O)c2C3=O)cc1 [Compound 55] | 0.33 | 3.35 | 0.89 | 3.45 | – | – |
| COc1cccc2c1OC1=C(C(=O)c3c(O)ccc(O)c3C1=O)N(c1ccc(C(N)=O)cc1)C2 [Compound 56] | 0.19 | 0.4 | – | 3.04 | 7.22 | – |
| CN(CCO)c1ccc(N2Cc3ccccc3OC3=C2C(=O)c2c(O)ccc(O)c2C3=O)cn1 [Compound 61] | 0.16 | 0.41 | – | – | 0.92 | 0.1 |
| COc1ccc(O)c2c1C(=O)C1=C(C2=O)N(c2cccc(C#N)c2)Cc2ccccc2O1 [Compound 66] | – | 1.21 | – | 2.34 | – | 0.05 |

Continued, in another order:

| IC50 (K562) [µM] | IC50 (MDA-MB-231) [µM] | IC50 (PANC-1) [µM] | IC50 (MCF-7) [µM] | IC50 (DU-145) [µM] | Compound | IC50 (HEL 92.1.7) [µM] |
| --- | --- | --- | --- | --- | --- | --- |
| – | 1.64 | 1.7 | 2.27 | 2.7 | CN(C)CCNc1ccc(N2Cc3ccccc3OC3=C2C(=O)c2ccccc2C3=O)cn1 [Compound 73] | – |
| – | 2.7 | 5.49 | 2.36 | 3.89 | N#Cc1ccc(N2Cc3ccccc3OC3=C2C(=O)c2cccc(O)c2C3=O)cc1 [Compound 75] | – |
| – | 1.8 | 1.86 | 2 | 2.3 | O=C1C2=C(Oc3ccccc3CN2c2cccnc2)C(=O)c2c(O)cccc21 [Compound 76] | – |
| – | 1.18 | – | 3.98 | – | COc1ccc(O)c2c1C(=O)C1=C(Oc3ccccc3CN1c1ccccc1)C2=O [Compound 84] | 3.71 |
| 0.38 | 1.03 | 1.78 | 2.57 | – | COc1ccc(OC)c2c1C(=O)C1=C(C2=O)N(c2cccnc2)Cc2ccccc2O1 [Compound 85, 7,10-dimethoxy-12-(pyridin-3-yl)-12,13-dihydrobenzo[f]naphtho[2,3-b][1,4]oxazepine-6,11-dione] | 0.33 |
| – | 1.28 | 3.89 | – | – | COc1ccc(OC)c2c1C(=O)C1=C(C2=O)N(c2ccc(N3CCOCC3)nc2)Cc2ccccc2O1 [Compound 86] | 0.59 |
| 0.44 | 0.35 | 0.42 | 0.79 | 0.68 | CN(C)CCNc1ccc(N2Cc3ccccc3OC3=C2C(=O)c2c(O)ccc(O)c2C3=O)cn1 [Compound 97, 12-(6-((2-(dimethylamino)ethyl)amino)pyridin-3-yl)-7,10-dihydroxy-12,13-dihydrobenzo[f]naphtho[2,3-b][1,4]oxazepine-6,11-dione] | – |
| – | 2.17 | 2.94 | 3.54 | 4.7 | CN(C)c1ccc(N2Cc3ccccc3OC3=C2C(=O)c2ccccc2C3=O)cn1 [Compound 98] | – |
| – | 2.09 | 2.61 | 2.28 | 4.3 | O=C1C2=C(C(=O)c3ccccc31)N(c1ccc(N3CCOCC3)nc1)Cc1ccccc1O2 [Compound 99] | – |
| – | 1.63 | 1.8 | 1.95 | 3.4 | CN1CCN(c2ccc(N3Cc4ccccc4OC4=C3C(=O)c3ccccc3C4=O)cn2)CC1 [Compound 100, 12-(6-(4-methylpiperazin-1-yl)pyridin-3-yl)-12,13-dihydrobenzo[f]naphtho [2,3-b][1,4]oxazepine-6,11-dione] | – |
| 0.42 | 0.17 | – | – | 1 | COC(=O)CNC(=O)c1ccc(N2Cc3ccccc3OC3=C2C(=O)c2c(O)ccc(O)c2C3=O)cc1 [Compound 102, methyl (4-(7,10-dihydroxy-6,11-dioxo-6,11-dihydrobenzo[f]naphtho[2,3-b][1,4]oxazepin-12(13H)-yl)benzoyl)glycinate] | – |
| – | 1.4 | 1.41 | 1.74 | 1.8 | CN(C)c1ccc(N2Cc3ccccc3OC3=C2C(=O)c2cccc(O)c2C3=O)cn1 [Compound 103] | – |
| – | 1.02 | 1.23 | 1.82 | 1.6 | O=C1C2=C(Oc3ccccc3CN2c2ccc(N3CCOCC3)nc2)C(=O)c2c(O)cccc21 [Compound 104] | – |
| – | 0.71 | 0.69 | 1.99 | 1.51 | CN(C)CCNc1ccc(N2Cc3ccccc3OC3=C2C(=O)c2cccc(O)c2C3=O)cn1 [Compound 105] | – |
| – | 0.74 | 0.71 | – | – | CN1CCN(c2ccc(N3Cc4ccccc4OC4=C3C(=O)c3cccc(O)c3C4=O)cn2)CC1 [Compound 106] | – |
